{
  "source": "patent US20090234017A1",
  "about": "“TREATING SKIN DISORDERS” (priority 2005, published 2009)",
  "test_system": "psoriasis",
  "test": "Case report: psoriasis in a patient treated with midodrine for hypotension",
  "data": [
    {"smiles": "COc1ccc(OC)c(C(O)CNC(=O)CN)c1", "note": "(centres unmarked) [midodrine]", "values": [
      {"measurement": "improvement of the patient's psoriasis", "setting": "person with moderate psoriasis, midodrine five mg three times a day for three months", "result": "≥ 90", "unit": "%"},
      {"measurement": "psoriasis after discontinuing use of midodrine", "setting": "same patient, after discontinued use of midodrine", "result": "psoriasis returned"}
    ]}
  ]
}
